Columns and labels:
HT-29 [1] = assay: Cytotoxicity against human HT-29 cells after 48 hrs by MTT assay; assay type: functional, cell-based
MCF7 = assay: Cytotoxicity against human MCF7 cells after 48 hrs by MTT assay; assay type: functional, cell-based
A549 = assay: Cytotoxicity against human A549 cells after 48 hrs by MTT assay; assay type: functional, cell-based
MDA-MB-231 [2] = assay: Cytotoxicity against human MDA-MB-231 cells after 48 hrs by MTT assay; assay type: functional, cell-based
HeLa = assay: Cytotoxicity against human HeLa cells after 48 hrs by MTT assay; assay type: functional, cell-based
MRC5 = assay: Cytotoxicity against human MRC5 cells after 48 hrs by MTT assay; assay type: cell-based
MDA-MB-231 [3] = assay: Induction of cytotoxic response in human MDA-MB-231 cells after 48 hrs by MTT assay; assay type: functional
HT-29 [4] = assay: Induction of cytotoxic response in human HT-29 cells after 48 hrs by MTT assay; assay type: functional

Compound | IC50 (HT-29 [1]; ht-29) | IC50 (MCF7; mcf7) | IC50 (A549; a549) | IC50 (MDA-MB-231 [2]; mda-mb-231) | IC50 (HeLa; hela) | IC50 (MRC5; mrc5) | IC50 (HT-29 [1]; Homo sapiens, HT-29, 48 h) | IC50 (MCF7; Homo sapiens, MCF7, 48 h) | Activity (MDA-MB-231 [3]) | IC50 (A549; Homo sapiens, A549, 48 h) | IC50 (MDA-MB-231 [2]; Homo sapiens, MDA-MB-231, 48 h) | Activity (HT-29 [4]) | IC50 (HeLa; Homo sapiens, HeLa, 48 h) | IC50 (MRC5; Homo sapiens, MRC5, 48 h)
C[C@@]1(O)CS[C@@H](n2ccc(N)nc2=O)[C@@H]1O [listing 1 of 2 here] | 6400 µM | 139 µM | 9 µM | 10 µM | 17 µM | 147 µM | – | – | – | – | – | – | – | –
Cc1cn([C@@H]2SC[C@@](C)(O)[C@H]2O)c(=O)[nH]c1=O | – | – | – | – | – | – | 5 µM | 323 µM | 57% | 41 µM | 3 µM | 62% | 214 µM | 269 µM
Cc1cn([C@H]2SC[C@](C)(O)[C@@H]2O)c(=O)[nH]c1=O | – | – | – | – | – | – | 640 µM | 172 µM | – | 30 µM | 52 µM | – | 6870 µM | 290 µM
C[C@@]1(O)CS[C@@H](n2ccc(=O)[nH]c2=O)[C@@H]1O | – | – | – | – | – | – | 8 µM | 193 µM | – | 4270 µM | 19 µM | – | 214 µM | 630 µM
C[C@]1(O)CS[C@H](n2ccc(=O)[nH]c2=O)[C@H]1O | – | – | – | – | – | – | 269 µM | 100 µM | – | 30 µM | 14 µM | – | 4320 µM | 1000 µM
C[C@]1(O)CS[C@H](n2ccc(N)nc2=O)[C@H]1O | – | – | – | – | – | – | 5990 µM | 13 µM | – | 223 µM | 11 µM | – | 12 µM | 221 µM
C[C@@]1(O)CS[C@@H](n2ccc(N)nc2=O)[C@@H]1O [listing 2 of 2 here] | 2270 µM | 1980 µM | 1320 µM | 58 µM | 106 µM | 4340 µM | – | – | – | – | – | – | – | –

— ChEMBL document CHEMBL2384976, “Synthesis and cytotoxic evaluation of novel pyrimidine deoxyapiothionucleosides” (Bioorg Med Chem Lett, 2013)
